Results published in patent publication US9296722B2, “Azolyl urea compounds and methods of use thereof” (Ambit Biosciences Corporation, priority 2010, dated 2016).

Assays:
CSF1R (human) = target: T1, CSF1R (human) (Homo sapiens, UniProt P07333); test: Competition binding assay, CSF1R (human) Kd
T1 construct: made in house; host or cells: T7 phage display or HEK-293 cells (alternatives, not resolved per kinase)
Procedure: (§1) The liganded beads were blocked with excess biotin and washed with blocking buffer (SeaBlock (Pierce), 1% BSA, 0.05% Tween 20, 1 mM DTT) to remove unbound ligand and to reduce non-specific binding. […] Test compounds were prepared as 100× stocks in DMSO and diluted into the aqueous environment. Kds were determined using an eleven point threefold serial dilutions. DMSO or control compounds were was added to control assays lacking a test compound. […] The kinase concentration in the eluates was measured by quantitative PCR.

CSF1R (mouse) = target: T2, CSF1R (mouse) (Mus musculus, UniProt P09581); test: Competition binding assay, CSF1R (mouse) Kd
T2 construct: made in house; host or cells: T7 phage display or HEK-293 cells (alternatives, not resolved per kinase)
T2 sequence (P09581 20-977): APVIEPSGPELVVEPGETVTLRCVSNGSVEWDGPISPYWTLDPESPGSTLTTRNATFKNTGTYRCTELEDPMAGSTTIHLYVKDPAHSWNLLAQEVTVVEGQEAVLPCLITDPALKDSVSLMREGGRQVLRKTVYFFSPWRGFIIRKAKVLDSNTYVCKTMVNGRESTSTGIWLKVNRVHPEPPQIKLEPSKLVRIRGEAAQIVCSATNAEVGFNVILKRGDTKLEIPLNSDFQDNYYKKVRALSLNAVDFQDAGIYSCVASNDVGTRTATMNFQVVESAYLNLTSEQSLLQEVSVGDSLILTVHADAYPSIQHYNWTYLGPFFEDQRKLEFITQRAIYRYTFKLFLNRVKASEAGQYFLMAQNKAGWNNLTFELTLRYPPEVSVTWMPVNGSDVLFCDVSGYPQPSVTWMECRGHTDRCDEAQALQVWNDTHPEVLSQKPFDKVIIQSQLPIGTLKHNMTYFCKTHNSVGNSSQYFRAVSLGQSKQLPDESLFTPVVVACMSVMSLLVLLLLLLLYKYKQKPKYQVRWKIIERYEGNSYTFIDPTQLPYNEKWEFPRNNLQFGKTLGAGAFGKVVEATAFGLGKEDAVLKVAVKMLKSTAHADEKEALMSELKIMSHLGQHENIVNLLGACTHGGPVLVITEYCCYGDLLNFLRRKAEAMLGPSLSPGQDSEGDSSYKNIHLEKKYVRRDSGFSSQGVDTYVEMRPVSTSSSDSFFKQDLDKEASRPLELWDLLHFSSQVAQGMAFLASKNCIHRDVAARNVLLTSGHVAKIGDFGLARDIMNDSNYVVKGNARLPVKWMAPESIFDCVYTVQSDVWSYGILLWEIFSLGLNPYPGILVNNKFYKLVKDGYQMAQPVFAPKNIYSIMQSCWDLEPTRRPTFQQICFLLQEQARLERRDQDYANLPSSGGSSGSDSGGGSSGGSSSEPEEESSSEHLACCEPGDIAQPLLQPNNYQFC
Procedure: as §1

M-NFS-60 cells = test: M-NFS-60 cell proliferation assay; type: cell-based, mouse; parameters: CSF1R Cell Proliferation (M-NFS-60) IC50 (nM): scale not given here; settings: 72 hours incubation, Alamar Blue, M-CSF-dependent cells; for IC50: Mus musculus, read-out: CSF1R Cell Proliferation (M-NFS-60) IC50
Procedure: In certain embodiments, the compounds disclosed herein are tested in an M-NFS-60 cell proliferation assay to determine their cellular potency against CSF-1R. M-NFS-60s are mouse monocytic cells that depend on the binding of the ligand M-CSF to its receptor, CSF-1R, to proliferate Inhibition of CSF-1R kinase activity will cause reduced growth and/or cell death. This assay assesses the potency of compounds as CSF-1R inhibitors by measuring the reduction of Alamar Blue reagent by viable cells. An exemplary assay is described in the Examples section.
The compounds disclosed herein were tested in an M-NFS-60 cell proliferation assay to determine their cellular potency against CSF1R. M-NFS-60s are mouse monocytic cells that depend on the binding of the ligand M-CSF to its receptor, CSF1R, to proliferate Inhibition of CSF1R kinase activity will cause reduced growth and/or cell death. This assay assesses the potency of compounds as CSF1R inhibitors by measuring the reduction of Alamar Blue reagent by viable cells.
On day one of the experiment, M-NFS-60 cells were maintained in RPMI complete medium (Omega Scientific) plus 10% FBS supplemented with 20 ng/mL of M-CSF (R&D Systems). 96-well TC-treated, flat bottom plates were seeded at 10,000 cell/well at a volume of 100 μL per well. The cells were cultured overnight at 37° C. under 5% CO2.
On day two, compounds were added to the cells at 9 different concentrations, with half-log intervals alongside a control reference compound serving as a positive control. Final DMSO concentration was kept at 0.5% for a final volume of 200 μL. The compounds were allowed to incubate with the cells for 72 hours at 37° C. under 5% CO2.
On day five of the experiment, 40 μl of Alamar Blue reagent was added to each well and allowed to incubate for 3 hours. Alamar Blue fluorescence was read using SoftMax Pro software at 560 nm (excitation) and 590 nm (emission). IC50s were generated as an average of duplicates and represents the concentration of test compound that achieves 50% inhibition of cellular proliferation compared to control.

[1] = target: kinase panel containing either 359 or 386 distinct kinases; test: Competition binding assay, selectivity score (S10) against a panel of kinases; settings: compounds at 10 μM; fraction of kinases with percent of control less than 10
Procedure: Competition binding assays used herein were developed, validated and performed as described in Fabian et al., Nature Biotechnology 2005, 23, 329-336. Kinases were produced as fusions to T7 phage (See, Fabian et al. or WO04/015142) or alternatively, the kinases were expressed in HEK-293 cells and subsequently tagged with DNA for PCR detection (See, WO08/005,310). […] The liganded beads were blocked with excess biotin and washed with blocking buffer (SeaBlock (Pierce), 1% BSA, 0.05% Tween 20, 1 mM DTT) to remove unbound ligand and to reduce non-specific binding. […] Test compounds were prepared as 100× stocks in DMSO and diluted into the aqueous environment. Kds were determined using an eleven point threefold serial dilutions. DMSO or control compounds were was added to control assays lacking a test compound. Primary screen assays were performed in polypropylene 384-well plates in a final volume of 20-40 μL, while Kd determinations were performed in polystyrene 96-well plates in a final volume of […]. […] The kinase concentration in the eluates was measured by quantitative PCR.
A selectivity score (S10) is a quantitative measure of selectivity of a compound against a panel of kinases. An S10 was calculated for a compound by dividing the number of kinases found to have a percent of control (DMSO) less than 10 by the total number of distinct kinases tested (excluding mutant variants). Percent of control (POC) is calculated by subtracting the signal of the control compound
(POC=0) from the signal of the test compound and dividing the outcome by the signal of DMSO (POC=100) minus the signal of the control compound. For the compounds disclosed herein, S10 scores were obtained by testing the compounds at 10 μM concentration in a kinase panel containing either 359 or 386 distinct kinases.

T1 sequence (P07333 20-972): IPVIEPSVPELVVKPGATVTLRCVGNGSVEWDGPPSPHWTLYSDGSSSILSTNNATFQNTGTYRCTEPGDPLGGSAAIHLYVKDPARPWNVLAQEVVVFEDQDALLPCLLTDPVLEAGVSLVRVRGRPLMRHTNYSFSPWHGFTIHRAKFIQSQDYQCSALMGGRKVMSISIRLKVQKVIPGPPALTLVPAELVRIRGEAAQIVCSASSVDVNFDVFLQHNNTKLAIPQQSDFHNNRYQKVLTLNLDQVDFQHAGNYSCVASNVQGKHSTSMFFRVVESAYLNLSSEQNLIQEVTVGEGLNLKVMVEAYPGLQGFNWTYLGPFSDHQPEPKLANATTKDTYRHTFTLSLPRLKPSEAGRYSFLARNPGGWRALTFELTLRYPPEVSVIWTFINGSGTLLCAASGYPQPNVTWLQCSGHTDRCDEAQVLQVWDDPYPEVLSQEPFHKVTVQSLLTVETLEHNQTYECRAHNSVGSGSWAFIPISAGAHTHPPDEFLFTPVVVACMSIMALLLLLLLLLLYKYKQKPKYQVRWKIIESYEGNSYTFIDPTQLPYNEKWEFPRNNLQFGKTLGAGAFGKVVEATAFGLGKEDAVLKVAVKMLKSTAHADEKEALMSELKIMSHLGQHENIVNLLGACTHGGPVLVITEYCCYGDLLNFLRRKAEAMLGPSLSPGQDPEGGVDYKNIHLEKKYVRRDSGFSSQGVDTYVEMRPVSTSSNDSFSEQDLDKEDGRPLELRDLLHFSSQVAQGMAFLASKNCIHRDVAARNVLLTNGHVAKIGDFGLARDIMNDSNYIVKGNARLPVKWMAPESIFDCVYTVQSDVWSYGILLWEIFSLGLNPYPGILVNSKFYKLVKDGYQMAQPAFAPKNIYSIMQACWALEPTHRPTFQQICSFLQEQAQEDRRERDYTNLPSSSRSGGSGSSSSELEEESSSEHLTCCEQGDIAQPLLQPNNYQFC

| Structure (SMILES) | Kd (CSF1R (human)) [nM] | Kd (CSF1R (mouse)) [nM] | IC50 (M-NFS-60 cells) [nM] | Kinase Specificity (S10) [1] | CSF1R Cell Proliferation (M-NFS-60) IC50 (nM) (M-NFS-60 cells) |
| --- | --- | --- | --- | --- | --- |
| CC(C)(C)c1cc(NC(=O)Nc2ccc(NC(=O)c3cccc(OC4CCNCC4)n3)cc2)no1 | > 10 | > 10 | > 1000 | B (0.03 < B ≦ 0.05) | – |
| CC(C)(C)c1cc(NC(=O)Nc2ccc(NC(=O)c3cccc(CN)n3)cc2)no1.Cl | > 10 | > 10 | 250 to 1000 | A (A ≦ 0.03) | – |
| CCN1CCC(Oc2ccc(C(=O)Nc3ccc(NC(=O)Nc4cc(C(C)(CF)CF)on4)cc3)nc2)CC1 | < 3 | < 3 | ≤ 100 | B (0.03 < B ≦ 0.05) | – |
| CC(C)(C)c1cc(NC(=O)Nc2ccc(NC(=O)c3ccc(CC4CCNCC4)cn3)cc2)no1 | < 3 | < 3 | 100 to 250 | A (A ≦ 0.03) | – |
| CC(C)(C)c1cc(NC(=O)Nc2ccc(NC(=O)c3ccc(CN4CCOCC4)cn3)cc2)no1 | 3 to 10 | 3 to 10 | 100 to 250 | A (A ≦ 0.03) | – |
| CC(C)(C)c1cc(NC(=O)Nc2ccc(NC(=O)c3cccc(OCCN4CCOCC4)n3)cc2)no1 | > 10 | > 10 | > 1000 | A (A ≦ 0.03) | – |
| CC(C)(C)c1cc(NC(=O)Nc2ccc(NC(=O)c3cc(OCCN4CCOCC4)ccn3)cc2)no1 | 3 to 10 | < 3 | – | A (A ≦ 0.03) | B/C |
| CN1CCC(c2ccc(C(=O)Nc3ccc(NC(=O)Nc4cc(C(C)(C)C)on4)cc3)nc2)CC1 | 3 to 10 | 3 to 10 | ≤ 100 | B (0.03 < B ≦ 0.05) | – |
